Measured values taken from patent publication US8193369B2, “Benzimidazole cannabinoid agonists” (Janssen Pharmaceutica NV, priority 2007, dated 2012).

Experiment: CB1 related side-effects: body temperature lowering, LAD
Assay type: in vivo
Experimental: CB1 related undesired side-effects such as lowering of body temperature, flat body posture, and mydriasis were measured for a number of compounds of the present invention and a number of compounds covered by reference WO-2006/048754.

SMILES | LAD (Lowest Acceptable Dose) at which lowering of body temperature was observed in more than half of the treated animals
CC(=O)N1CCC(Cn2c(C(C)(C)C)nc3cc(S(=O)(=O)C4CCCC4)ccc32)CC1 [Co. No. 35] | >40 mg/kg
CCS(=O)(=O)c1ccc2c(c1)nc(CC(C)(C)C)n2CC1CCN(C(C)=O)CC1 [Co. No. 46] | >40 mg/kg
CC(C)(C)c1nc2cc(S(=O)(=O)CCCC(F)(F)F)ccc2n1CC1CCOCC1 [Co. No. B, reference compound] | 10 mg/kg
CC(C)(C)c1nc2cc(S(=O)(=O)C3CCCC3)ccc2n1CC1CCOCC1 [Co. No. C, reference compound] | 5 mg/kg
CC(C)(C)c1nc2cc(S(=O)(=O)c3ccncc3)ccc2n1CC1CCOCC1 [Co. No. D, reference compound] | 10 mg/kg
CCS(=O)(=O)c1ccc2c(c1)nc(C(C)(C)C)n2CC1CCOCC1 [Co. No. F, reference compound] | 10 mg/kg
